Columns and labels:
[1] = system: Green Peach Aphid ("GPA") (Myzus persicae); assay: Bioassay on Green Peach Aphid (GPA), foliar spray on cabbage seedlings, corrected % control; format: in vivo; conditions: foliar spray on cabbage seedlings
[2] = system: Cabbage Looper (Trichoplusia ni) ("CL"); assay: Bioassay on Cabbage Looper (CL), 128-well diet tray assay, percent mortality; format: in vivo; conditions: for CL rating (percent mortality class): Cabbage Looper, 128-well diet tray assay; for pest or weed control at 50 µg/cm2: Trichoplusia ni, read-out: CL
How it was run: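 Larvae held in covered diet trays at 25 °C, 14:10 light-dark, for five to seven days. Percent mortality scored per well and averaged over eight wells.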

[3] = system: Beet Armyworm (Spodoptera exigua) ("BAW"); assay: Bioassay on Beet Armyworm (BAW), 128-well diet tray assay, percent mortality; format: in vivo; conditions: for BAW rating (percent mortality class): Beet Armyworm, 128-well diet tray assay; for pest or weed control at 50 µg/cm2: Spodoptera exigua, read-out: BAW
How it was run: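 Larvae in covered diet trays held at 25 °C, 14:10 light-dark, for five to seven days. Percent mortality scored per well and averaged over eight wells per treatment.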

[4] = system: Yellow Fever Mosquito "YFM" (Aedes aegypti); conditions: for YFM rating (mortality class): Yellow Fever Mosquito larvae, 96-well plates; for YFM: Table ABC (P), rating of mortality, Yellow Fever Mosquito

CC(C)c1ccccc1NC(=S)NC(=O)NCCc1ccc(-c2ncn(-c3ccc(OC(F)(F)F)cc3)n2)cc1 [F2, N-[2-isopropylphenyl]-N-[2-(4-{1-[4-(trifluoromethoxy)phenyl]-1H-1,2,4-triazol-3-yl}phenyl)ethyl]dicarbonimidothioic diamide]
GPA rating (corrected % control class) [1]: B (More than 0-Less than 80) | CL rating (percent mortality class) [2]: A (50-100) | BAW rating (percent mortality class) [3]: A (50-100) | YFM rating (mortality class) [4]: A (80-100)

Cc1ccc(C(C)C)c(N2C(=O)CS/C2=N\C(=O)NCCc2ccc(-c3ncn(-c4ccc(OC(F)(F)F)cc4)n3)cc2)c1 [F5, (Z)-1-(3-(2-isopropyl-5-methylphenyl)-4-oxothiazolidin-2-ylidene)-3-(4-(1-(4-(trifluoromethoxy)phenyl)-1H-1,2,4-triazol-3-yl)phenethyl)urea]
GPA rating (corrected % control class) [1]: A (80-100) | CL rating (percent mortality class) [2]: A (50-100) | BAW rating (percent mortality class) [3]: A (50-100) | YFM rating (mortality class) [4]: A (80-100)

COc1ccc(C(C)C)c(N2C(=O)CS/C2=N\C(=O)NCCc2ccc(-c3ncn(-c4ccc(OC(F)(F)F)cc4)n3)cc2)c1 [F6, (Z)-1-(3-(2-isopropyl-5-methoxyphenyl)-4-oxothiazolidin-2-ylidene)-3-(4-(1-(4-(trifluoromethoxy)phenyl)-1H-1,2,4-triazol-3-yl)phenethyl)urea]
GPA rating (corrected % control class) [1]: B (More than 0-Less than 80) | CL rating (percent mortality class) [2]: A (50-100) | BAW rating (percent mortality class) [3]: A (50-100) | YFM rating (mortality class) [4]: A (80-100)

CC(C)(C)c1ccccc1N1C(=O)CS/C1=N\C(=O)NCCc1ccc(-c2ncn(-c3ccc(OC(F)(F)F)cc3)n2)cc1 [P30, (Z)-1-(3-(2-(tert-butyl)phenyl)-4-oxothiazolidin-2-ylidene)-3-(4-(1-(4-(trifluoromethoxy)phenyl)-1H-1,2,4-triazol-3-yl)phenethyl)urea]
pest or weed control at 50 µg/cm2 [2]: 50 to 100% | pest or weed control at 50 µg/cm2 [3]: 50 to 100% | YFM [4]: A (80-100)

CCc1cc(C)ccc1N1C(=O)CS/C1=N\C(=O)NCCc1ccc(-c2ncn(-c3ccc(OC(F)(F)F)cc3)n2)cc1 [P31, (Z)-1-(3-(2-ethyl-4-methylphenyl)-4-oxothiazolidin-2-ylidene)-3-(4-(1-(4-(trifluoromethoxy)phenyl)-1H-1,2,4-triazol-3-yl)phenethyl)urea]
pest or weed control at 50 µg/cm2 [2]: 50 to 100% | pest or weed control at 50 µg/cm2 [3]: 50 to 100% | YFM [4]: A (80-100)

CC(Cc1ccc(-c2ncn(-c3ccc(OC(F)(F)F)cc3)n2)cc1)NC(=O)/N=C1\SCC(=O)N1c1ccc(F)cc1C(C)C (stereo not drawn) [P33, (Z)-1-(3-(4-fluoro-2-isopropylphenyl)-4-oxothiazolidin-2-ylidene)-3-(1-(4-(1-(4-(trifluoromethoxy)phenyl)-1H-1,2,4-triazol-3-yl)phenyl)propan-2-yl)urea]
pest or weed control at 50 µg/cm2 [2]: 50 to 100% | pest or weed control at 50 µg/cm2 [3]: 50 to 100% | YFM [4]: A (80-100)

CCc1cccc(C)c1N1C(=O)CS/C1=N\C(=O)NC(C)Cc1ccc(-c2ncn(-c3ccc(OC(F)(F)F)cc3)n2)cc1 (stereo not drawn) [P42, (Z)-1-(3-(2-ethyl-6-methylphenyl)-4-oxothiazolidin-2-ylidene)-3-(1-(4-(1-(4-(trifluoromethoxy)phenyl)-1H-1,2,4-triazol-3-yl)phenyl)propan-2-yl)urea]
pest or weed control at 50 µg/cm2 [2]: 50 to 100% | pest or weed control at 50 µg/cm2 [3]: 50 to 100% | YFM [4]: A (80-100)

COc1ccc(N2C(=O)CS/C2=N\C(=O)NCCc2ccc(-c3ncn(-c4ccc(OC(F)(F)F)cc4)n3)cc2)c(C)c1 [P44, (Z)-1-(3-(4-methoxy-2-methylphenyl)-4-oxothiazolidin-2-ylidene)-3-(4-(1-(4-(trifluoromethoxy)phenyl)-1H-1,2,4-triazol-3-yl)phenethyl)urea]
pest or weed control at 50 µg/cm2 [2]: 50 to 100% | pest or weed control at 50 µg/cm2 [3]: 50 to 100% | YFM [4]: A (80-100)

COc1ccc(N2C(=O)CS/C2=N\C(=O)NC(C)Cc2ccc(-c3ncn(-c4ccc(OC(F)(F)F)cc4)n3)cc2)c(C)c1 (stereo not drawn) [P45, (Z)-1-(3-(4-methoxy-2-methylphenyl)-4-oxothiazolidin-2-ylidene)-3-(1-(4-(1-(4-(trifluoromethoxy)phenyl)-1H-1,2,4-triazol-3-yl)phenyl)propan-2-yl)urea]
pest or weed control at 50 µg/cm2 [2]: 50 to 100% | pest or weed control at 50 µg/cm2 [3]: 50 to 100% | YFM [4]: A (80-100)

COc1cc(C)c(N2C(=O)CS/C2=N\C(=O)NCCc2ccc(-c3ncn(-c4ccc(OC(F)(F)F)cc4)n3)cc2)c(C)c1 [P47, (Z)-1-(3-(4-methoxy-2,6-dimethylphenyl)-4-oxothiazolidin-2-ylidene)-3-(4-(1-(4-(trifluoromethoxy)phenyl)-1H-1,2,4-triazol-3-yl)phenethyl)urea]
pest or weed control at 50 µg/cm2 [2]: 50 to 100% | pest or weed control at 50 µg/cm2 [3]: 50 to 100% | YFM [4]: A (80-100)

CCc1ccc(C)cc1N1C(=O)CS/C1=N\C(=O)NCCc1ccc(-c2ncn(-c3ccc(OC(F)(F)F)cc3)n2)cc1 [P49, (Z)-1-(3-(2-ethyl-5-methylphenyl)-4-oxothiazolidin-2-ylidene)-3-(4-(1-(4-(trifluoromethoxy)phenyl)-1H-1,2,4-triazol-3-yl)phenethyl)urea]
pest or weed control at 50 µg/cm2 [2]: 50 to 100% | pest or weed control at 50 µg/cm2 [3]: 50 to 100% | YFM [4]: A (80-100)

CCc1cccc(C)c1N1C(=O)CS/C1=N\C(=O)NCCc1ccc(-c2ncn(-c3ccc(OC(F)(F)F)cc3)n2)cc1 [P50, (Z)-1-(3-(2-ethyl-6-methylphenyl)-4-oxothiazolidin-2-ylidene)-3-(4-(1-(4-(trifluoromethoxy)phenyl)-1H-1,2,4-triazol-3-yl)phenethyl)urea]
pest or weed control at 50 µg/cm2 [2]: 50 to 100% | pest or weed control at 50 µg/cm2 [3]: 50 to 100% | YFM [4]: A (80-100)

Cc1ccc(C(C)C)c(N2C(=O)CS/C2=N\C(=O)NCCc2ccc(-c3ncn(-c4ccc(C(F)(F)F)cc4)n3)cc2)c1 [P52, (Z)-1-(3-(2-isopropyl-5-methylphenyl)-4-oxothiazolidin-2-ylidene)-3-(4-(1-(4-(trifluoromethyl)phenyl)-1H-1,2,4-triazol-3-yl)phenethyl)urea]
pest or weed control at 50 µg/cm2 [2]: 50 to 100% | pest or weed control at 50 µg/cm2 [3]: 50 to 100% | YFM [4]: A (80-100)

COc1ccc(C(C)C)c(N2C(=O)CS/C2=N\C(=O)NCCc2ccc(-c3ncn(-c4ccc(C(F)(F)F)cc4)n3)cc2)c1 [P53, (Z)-1-(3-(2-isopropyl-5-methoxyphenyl)-4-oxothiazolidin-2-ylidene)-3-(4-(1-(4-(trifluoromethyl)phenyl)-1H-1,2,4-triazol-3-yl)phenethyl)urea]
pest or weed control at 50 µg/cm2 [2]: 50 to 100% | pest or weed control at 50 µg/cm2 [3]: 50 to 100% | YFM [4]: A (80-100)

Cc1ccc(C(C)C)c(N2C(=O)C(C)S/C2=N\C(=O)NCCc2ccc(-c3ncn(-c4ccc(OC(F)(F)F)cc4)n3)cc2)c1 (stereo not drawn) [P57, (Z)-1-(3-(2-isopropyl-5-methylphenyl)-5-methyl-4-oxothiazolidin-2-ylidene)-3-(4-(1-(4-(trifluoromethoxy)phenyl)-1H-1,2,4-triazol-3-yl)phenethyl)urea]
pest or weed control at 50 µg/cm2 [2]: 50 to 100% | pest or weed control at 50 µg/cm2 [3]: 50 to 100% | YFM [4]: A (80-100)

Cc1ccc(C(C)C)c(-n2c(C)cs/c2=N\C(=O)NCCc2ccc(-c3ncn(-c4ccc(OC(F)(F)F)cc4)n3)cc2)c1 [P65, (Z)-1-(3-(2-isopropyl-5-methylphenyl)-4-methylthiazol-2(3H)-ylidene)-3-(4-(1-(4-(trifluoromethoxy)phenyl)-1H-1,2,4-triazol-3-yl)phenethyl)urea]
pest or weed control at 50 µg/cm2 [2]: 50 to 100% | pest or weed control at 50 µg/cm2 [3]: 50 to 100% | YFM [4]: A (80-100)

Cc1ccccc1N1C(=O)CS/C1=N\C(=O)NCCCCc1ccc(-c2ncn(-c3ccc(OC(F)(F)F)cc3)n2)cc1 [P144, (Z)-1-(4-oxo-3-(o-tolyl)thiazolidin-2-ylidene)-3-(4-(4-(1-(4-(trifluoromethoxy)phenyl)-1H-1,2,4-triazol-3-yl)phenyl)butyl)urea]
pest or weed control at 50 µg/cm2 [2]: 50 to 100% | pest or weed control at 50 µg/cm2 [3]: 50 to 100% | YFM [4]: A (80-100)

Cc1ccc(N2C(=O)CS/C2=N\C(=O)NCCCCc2ccc(-c3ncn(-c4ccc(OC(F)(F)F)cc4)n3)cc2)c(C(C)C)c1 [P154, (Z)-1-(3-(2-isopropyl-4-methylphenyl)-4-oxothiazolidin-2-ylidene)-3-(4-(4-(1-(4-(trifluoromethoxy)phenyl)-1H-1,2,4-triazol-3-yl)phenyl)butyl)urea]
pest or weed control at 50 µg/cm2 [2]: 50 to 100% | pest or weed control at 50 µg/cm2 [3]: 50 to 100% | YFM [4]: B (More than 0-Less than 80)

Cc1ccc(C(C)C)c(N2C(=O)CS/C2=N\C(=O)NCCC#Cc2ccc(-c3ncn(-c4ccc(OC(F)(F)F)cc4)n3)cc2)c1 [P160, (Z)-1-(3-(2-isopropyl-5-methylphenyl)-4-oxothiazolidin-2-ylidene)-3-(4-(4-(1-(4-(trifluoromethoxy)phenyl)-1H-1,2,4-triazol-3-yl)phenyl)but-3-yn-1-yl)urea]
pest or weed control at 50 µg/cm2 [2]: 50 to 100% | pest or weed control at 50 µg/cm2 [3]: 50 to 100% | YFM [4]: B (More than 0-Less than 80)

CC(C)c1ccccc1N1C(=O)CS/C1=N\C(=O)NCC(C)c1ccc(-c2ncn(-c3ccc(OC(F)(F)F)cc3)n2)cc1 (stereo not drawn) [P205, (Z)-1-(3-(2-isopropylphenyl)-4-oxothiazolidin-2-ylidene)-3-(2-(4-(1-(4-(trifluoromethoxy)phenyl)-1H-1,2,4-triazol-3-yl)phenyl)propyl)urea]
pest or weed control at 50 µg/cm2 [2]: 50 to 100% | pest or weed control at 50 µg/cm2 [3]: 50 to 100% | YFM [4]: A (80-100)

COc1ccc(C(C)C)c(N2C(=O)CS/C2=N\C(=O)NCC(C)c2ccc(-c3ncn(-c4ccc(OC(F)(F)F)cc4)n3)cc2)c1 (stereo not drawn) [P679, (Z)-1-(3-(2-isopropyl-5-methoxyphenyl)-4-oxothiazolidin-2-ylidene)-3-(2-(4-(1-(4-(trifluoromethoxy)phenyl)-1H-1,2,4-triazol-3-yl)phenyl)propyl)urea]
pest or weed control at 50 µg/cm2 [2]: 50 to 100% | pest or weed control at 50 µg/cm2 [3]: 50 to 100% | YFM [4]: A (80-100)

Reference: patent US20140274688A1, “MOLECULES HAVING CERTAIN PESTICIDAL UTILITIES, AND INTERMEDIATES, COMPOSITIONS, AND PROCESSES RELATED THERETO” (DOW AGROSCIENCES LLC, priority 2013, published 2014)
